Reference: patent US20120277161A1, “INHIBITION OF MULTIPLE CELL ACTIVATION PATHWAYS” (INTER-K PTY LIMITED, priority 2009, published 2012)
Each block holds one compound with its values, some of them ahead of it.

Legend:
[1] = system: cell adhesion mediated ERK activation in HT29 human colon cancer cells; assay: ERK cell adhesion assay (fibronectin), phospho-ERK1/2 ELISA; format: cell-based
Description: Experimental wells were coated with 100 μL of fibronectin (1-10 μg/mL, Sigma-Aldrich) or 100 μL of 1% BSA (negative control, Sigma-Aldrich). Plates were then incubated at 37° C. for 1 hour before being washed with 100 μL PBS. 100 μL of 1% BSA was then added to each well for 30 minutes to block non-specific binding (37°). HT29 human colon cancer cells were harvested using 0.5% trypsin-EDTA and 50,000 cells were plated into each empty well in 100 μL of serum free media (SFM; DMEM supplemented with 1% (v/v) L-glutamine and 2% (v/v) 1M HEPES solution). 100 μL of SFM with or without PP2 (final concentration 5 μM, specific c-Src inhibitor, Sigma-Aldrich), was then added to each well. Plates were centrifuged at 200 rpm for 5 minutes and then incubated at 37° C. for one hour. Phospho-ERK1/2 levels in the cell groups was evaluated by ELISA (Active Motif assay kit, Australian Biosearch) essentially as described in Example 7.1.
A study was undertaken to evaluate the effect of the PI3K inhibitor Wortmannin (0.25 μM final concentration) on cell adhesion mediated ERK activation in HT29 human colon cancer cells. Phospho-ERK1/2 levels were measured as an indicator of ERK activation substantially as described in Example 7.1. Increasing levels of phospho-ERK1/2 in HT29 cells correlated with increasing levels of fibronectin in the absence of serum stimulation of the HT29 cells.

[2] = system: ADDP human ovarian carcinoma cell line; assay: Cell proliferation (MTT) assay, ADDP cells; format: cell-based
Description: (§1) 6.1 Cell Proliferation (MTT) Assay Single cell suspensions of viable trypsinised cells were seeded into 96-well tissue culture plates at a density of 2×10^3 cells per well in a volume of 100 μl of a suitable culture media supplemented with heat inactivated foetal calf serum (FCS) (e.g., Dulbecco's Modified Eagles Medium (DMEM), with 10% v/v FCS, 1% L-glutamine, 2% (v/v) Hepes, and antibiotics). A set of triplicate wells was prepared for each concentration of the peptide dendrimer being tested. Additional sample wells containing untreated cells or media alone were set up in each treatment plate and processed in parallel as reference controls. A zero-time plate of untreated cells and media-alone wells was simultaneously prepared and an MTT assay carried out on this plate at the time of addition of the kinase inhibitor (i.e., polypeptide or dendrimer) to treatment plates. All plates were cultured for 24 hours before addition of the test dendrimer.
To prepare the MTT solution 100 mg of MTT (3-(4,5-dimethylthiazolyl-2)-2,5-diphenyltetrazolium bromide) (Cat #. M-128, Sigma, St Louis Mo.), is mixed with 20 ml of PBS at pH 7.4. The resulting solution is filter sterilized (0.2 μM syringe filter) and stored at 4° C. protected from light until use. MTT substrate is cleaved in growing cells to yield a water insoluble salt. After solubilisation of the salt crystals, a coloured product is produced the measurement of which allows quantitation of the proliferative activity of the cultured cells.
Appropriate concentrations of the kinase inhibitor were prepared by dilution of freshly prepared sterile 1 mM stock solutions into cell culture media to give a final well volume of 200 μl containing 10% v/v FCS. The zero-plate was processed by addition of MTT at this time. Cell culture was continued for a further 24 or 48 hours before addition of 20 μl of MTT in PBS (5 mg/ml, 0.2 um filter sterilised). The MTT cell proliferation assay measures cell proliferation rate and, in instances where cell viability is compromised, the assay indicates a comparative reduction in cell viability. After a 3 hour incubation in the presence of MTT (5% CO2 in air at 37° C.), plates were centrifuged at 450 g for 5 minutes, supernatant was removed by gentle suction and precipitated tetrazolium salt resuspended into 150 μl DMSO:glycine (0.1M glycine, 0.1M NaCl pH 10.5) (6:1 v/v) solution. Plates were gently vortexed to complete solubilisation of crystalline material and absorbance was read at 550 nm using a microplate reader. Sample data were processed to determine the comparative growth of treated samples relative to untreated controls.

[3] = molecular target: MEK1 (h) (Homo sapiens, UniProt Q02750); assay: MEK1 kinase activity assay; format: biochemical; details: 50 μM
Description: The reaction is initiated by the addition of the MgATP. After incubation for 40 minutes at room temperature, 5 μL of this incubation mix is used to initiate an ERK2 (m) assay.

[4] = molecular target: human Yes (Homo sapiens, UniProt P07947); assay: Yes kinase activity assay; format: biochemical; details: peptide 50 μM
Description: In a final reaction volume of 25 μl, human Yes is incubated with the RSKAKNPLYR peptide (SEQ ID No: 6) in 8 mM MOPS buffer pH 7.0, 0.2 mM EDTA, 0.1 mg/ml poly(Glu,Tyr) 4:1, 10 mM Mg acetate and [γ-33P-ATP] (specific activity approx. 500 cpm/pmol). The reaction is initiated by the addition of the MgATP mix, incubated for 40 minutes at room temperature prior to being stopped and kinase activity assessed by scintillation counting again as per the protocol described for c-Src in Example 1.1.

[5] = molecular target: human Lyn (Homo sapiens, UniProt P07948); assay: Lyn kinase activity assay; format: biochemical; details: peptide 50 μM
Description: In a final reaction volume of 25 μl, human Lyn is incubated with the RSKAKNPLYR peptide (SEQ ID No: 6) in 50 mM Tris buffer pH 7.5, 0.1 mM EGTA, 0.1 mM Na3VO4, 1% mercaptoethanol, 0.1 mg/ml poly(Glu,Tyr) 4:1, 10 mM Mg acetate and [γ-33P-ATP] (specific activity approx. 500 cpm/pmol). The reaction was initiated by the addition of the MgATP mix, incubated for 40 minutes at room temperature prior to being stopped and kinase activity assessed by scintillation counting as per the protocol described for c-Src described in Example 1.1.

[6] = molecular target: c-SRC (h) (Homo sapiens, UniProt P12931); assay: c-Src kinase activity assay (cell-free, 33P-ATP); format: biochemical; details: peptide 50 μM, relative to control
Description: In a final reaction volume of 25 μL, c-SRC (h) (5-10 mU) is incubated with 8 mM MOPS pH 7.0, 0.2 mM EDTA, 250 μM KVEKIGEGTYGVVYK (SEQ ID No. 19) (Cdc2 peptide), 10 mM MgAcetate and [γ-33P-ATP] (specific activity approx. 500 cpm/pmol, concentration as required). The reaction is initiated by the addition of the MgATP mix. After incubation for 40 minutes at room temperature, the reaction is stopped by the addition of 5 μL of a 3% phosphoric acid solution. 10 μL of the reaction is then spotted onto a P30 filtermat and washed three times for 5 minutes in 75 mM phosphoric acid and once in methanol prior to drying and scintillation counting.

[7] = system: A2780 ovarian cancer cell line; assay: Cell proliferation (MTT) assay, A2780 cells; format: cell-based, human; details: drug alone; FIG. 6
Description: as §1, with “A zero-time plate of untreated cells and media-alone wells was simultaneously prepared and an MTT assay carried out on this plate at the time of addition of the kinase inhibitor (i.e., polypeptide or dendrimer) to treatment plates. All plates were cultured for 24 hours before addition of the test dendrimer.” left out
To prepare the MTT solution 100 mg of MTT (3-(4,5-dimethylthiazolyl-2)-2,5-diphenyltetrazolium bromide) (Cat #. M-128, Sigma, St Louis Mo.), is mixed with 20 ml of PBS at pH 7.4. […] After solubilisation of the salt crystals, a coloured product is produced the measurement of which allows quantitation of the proliferative activity of the cultured cells.
Appropriate concentrations of the kinase inhibitor were prepared by dilution of freshly prepared sterile 1 mM stock solutions into cell culture media to give a final well volume of 200 μl containing 10% v/v FCS. […] Plates were gently vortexed to complete solubilisation of crystalline material and absorbance was read at 550 nm using a microplate reader. […]

human Lyn, sequence (P07948 whole entry): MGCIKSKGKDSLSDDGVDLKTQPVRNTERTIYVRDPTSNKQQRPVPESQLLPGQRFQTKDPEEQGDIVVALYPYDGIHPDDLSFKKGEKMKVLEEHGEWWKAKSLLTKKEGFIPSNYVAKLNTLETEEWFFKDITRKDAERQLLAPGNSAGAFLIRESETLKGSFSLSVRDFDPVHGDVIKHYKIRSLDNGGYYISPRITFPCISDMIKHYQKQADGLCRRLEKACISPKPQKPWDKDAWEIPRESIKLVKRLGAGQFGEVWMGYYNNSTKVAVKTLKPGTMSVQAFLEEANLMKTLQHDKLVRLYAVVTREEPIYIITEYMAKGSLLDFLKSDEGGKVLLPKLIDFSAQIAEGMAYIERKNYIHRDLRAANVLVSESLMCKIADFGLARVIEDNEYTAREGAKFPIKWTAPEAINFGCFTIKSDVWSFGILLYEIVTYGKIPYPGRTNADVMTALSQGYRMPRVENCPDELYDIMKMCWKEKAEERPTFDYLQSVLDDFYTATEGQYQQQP
human Yes, sequence (P07947 whole entry): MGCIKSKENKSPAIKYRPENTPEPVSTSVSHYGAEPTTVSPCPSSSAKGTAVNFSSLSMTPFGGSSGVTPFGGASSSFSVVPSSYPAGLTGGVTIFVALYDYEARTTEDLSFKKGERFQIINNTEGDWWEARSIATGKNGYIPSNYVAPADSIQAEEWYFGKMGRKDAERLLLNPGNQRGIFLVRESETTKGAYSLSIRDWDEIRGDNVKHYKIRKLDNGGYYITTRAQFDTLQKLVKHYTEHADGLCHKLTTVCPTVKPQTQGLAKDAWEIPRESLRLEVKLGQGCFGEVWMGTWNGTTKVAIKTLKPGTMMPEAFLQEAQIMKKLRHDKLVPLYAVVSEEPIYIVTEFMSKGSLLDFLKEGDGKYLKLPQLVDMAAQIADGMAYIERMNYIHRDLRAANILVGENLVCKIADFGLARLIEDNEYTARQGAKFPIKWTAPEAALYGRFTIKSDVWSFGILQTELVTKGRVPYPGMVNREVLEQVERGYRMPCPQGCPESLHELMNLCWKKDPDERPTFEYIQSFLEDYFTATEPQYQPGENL

Compound: COC[C@H]1OC(=O)c2coc3c2[C@@]1(C)C1=C(C3=O)[C@@H]2CCC(=O)[C@@]2(C)C[C@H]1OC(C)=O [Wortmannin]
reduction of cell adhesion mediated ERK activation ([1]; 0.25 μM, HT29 cells): about 55%

inhibition of MEK1 [3]: negligible inhibition
inhibition of Yes activity [4]: only relatively low level inhibition
inhibition of Lyn activity [5]: only relatively low level inhibition
% Inhibition of control, c-Src tyrosine kinase activity [6]: approx. 57%
Compound: RSKAKNPLYR [Peptide 1]
effect in combination with cisplatin, ADDP cells ([2]; 20 μM peptide, 72 hour culture, data not shown): synergistic effect

Compound: N.N.[Cl][Pt][Cl] [cisplatin, cis-diamminedichloroplatinum (II), reference compound]
inhibition of growth of A2780 cell line [7]: highly susceptible
inhibition of growth of ADDP cell line ([2]; drug alone, FIG. 6): substantially less inhibition of growth

Compound: CC(C)(C)n1nc(-c2ccc(Cl)cc2)c2c(N)ncnc21 [PP2]
phospho-ERK levels, HT29 cells on fibronectin ([1]; 5 μM, no serum stimulation, results not shown): markedly reduced
